Laboratory results: ChEMBL document CHEMBL4257522, “Synthesis and preliminary anti-inflammatory and anti-bacterial evaluation of some diflunisal aza-analogs” (Medchemcomm, 2018)
The source made the active and inactive calls. The rule behind the calls is not given here.

How the values were obtained:
[1] = test system: Klebsiella pneumoniae; test: Toxicity in Klebsiella pneumoniae ATCC 13883 up to 32 uM measured after 16 hrs; format: organism-based
[2] = test system: Pseudomonas aeruginosa; test: Potentiation of geneticin-induced antibacterial activity against Pseudomonas aeruginosa ATCC BAA-2108 assessed as minimum modulatory concentration up to 32 uM measured after 16 hrs in presence of MIC/4 geneticin; format: functional; conditions: ATCC BAA-2108, 16 h, read-out: MEC
[3] = test system: Staphylococcus aureus; test: Potentiation of ciprofloxacin-induced antibacterial activity against Staphylococcus aureus ATCC 33592 assessed as minimum modulatory concentration up to 32 uM measured after 16 hrs in presence of MIC/4 ciprofloxacin; format: functional; conditions: ATCC 33592, 16 h, read-out: MEC
[4] = test system: Streptococcus pyogenes; test: Potentiation of erythromycin-induced antibacterial activity against Streptococcus pyogenes ATCC 14289 assessed as minimum modulatory concentration up to 32 uM measured after 16 hrs in presence of MIC/4 erythromycin; format: functional; conditions: ATCC 14289, 16 h, read-out: MEC
[5] = test system: Klebsiella pneumoniae; test: Potentiation of methicillin-induced antibacterial activity against Klebsiella pneumoniae ATCC 13883 assessed as minimum modulatory concentration up to 32 uM measured after 16 hrs in presence of MIC/4 methicillin; format: functional; conditions: ATCC 13883, 16 h, read-out: MEC
[6] = test system: Streptococcus pyogenes; test: Toxicity in Streptococcus pyogenes ATCC 14289 up to 32 uM measured after 16 hrs; format: organism-based
[7] = test system: Escherichia coli; test: Potentiation of methicillin-induced antibacterial activity against Escherichia coli ATCC 43894 assessed as minimum modulatory concentration up to 32 uM measured after 16 hrs in presence of MIC/4 methicillin; format: functional; conditions: ATCC 43894, 16 h, read-out: MEC
[8] = test system: Klebsiella pneumoniae; test: Potentiation of tetracycline-induced antibacterial activity against Klebsiella pneumoniae ATCC 13883 assessed as minimum modulatory concentration up to 32 uM measured after 16 hrs in presence of MIC/4 tetracycline; format: functional; conditions: ATCC 13883, 16 h, read-out: MEC
[9] = test system: Klebsiella pneumoniae; test: Potentiation of geneticin-induced antibacterial activity against Klebsiella pneumoniae ATCC 13883 assessed as minimum modulatory concentration up to 32 uM measured after 16 hrs in presence of MIC/4 geneticin; format: functional; conditions: ATCC 13883, 16 h, read-out: MEC
[10] = test system: Macrophage cell line; test: Antiinflammatory activity in human PBMC-differentiated macrophages assessed as inhibition of LPS-induced IL-8 production at 0.01 to 10 uM measured after 24 hrs by ELISA; format: functional, cell-based
[11] = test system: Pseudomonas aeruginosa; test: Potentiation of methicillin-induced antibacterial activity against Pseudomonas aeruginosa ATCC BAA-2108 assessed as minimum modulatory concentration up to 32 uM measured after 16 hrs in presence of MIC/4 methicillin; format: functional; conditions: ATCC BAA-2108, 16 h, read-out: MEC
[12] = test system: Streptococcus pyogenes; test: Potentiation of geneticin-induced antibacterial activity against Streptococcus pyogenes ATCC 14289 assessed as minimum modulatory concentration up to 32 uM measured after 16 hrs in presence of MIC/4 geneticin; format: functional; conditions: ATCC 14289, 16 h, read-out: MEC
[13] = test system: Enterococcus faecium; test: Toxicity in Enterococcus faecium ATCC 700221 up to 32 uM measured after 16 hrs; format: organism-based; conditions: in vitro
[14] = test system: Macrophage cell line; test: Induction of prostaglandin production in human PBMC-differentiated macrophages after 24 hrs by ELISA; format: cell-based
[15] = test system: Staphylococcus aureus; test: Potentiation of erythromycin-induced antibacterial activity against Staphylococcus aureus ATCC 33592 assessed as minimum modulatory concentration up to 32 uM measured after 16 hrs in presence of MIC/4 erythromycin; format: functional; conditions: ATCC 33592, 16 h, read-out: MEC
[16] = test system: Klebsiella pneumoniae; test: Potentiation of erythromycin-induced antibacterial activity against Klebsiella pneumoniae ATCC 13883 assessed as minimum modulatory concentration up to 32 uM measured after 16 hrs in presence of MIC/4 erythromycin; format: functional; conditions: ATCC 13883, 16 h, read-out: MEC
[17] = test system: Staphylococcus aureus; test: Potentiation of geneticin-induced antibacterial activity against Staphylococcus aureus ATCC 33592 assessed as minimum modulatory concentration up to 32 uM measured after 16 hrs in presence of MIC/4 geneticin; format: functional; conditions: ATCC 33592, 16 h, read-out: MEC
[18] = test system: Staphylococcus aureus; test: Potentiation of methicillin-induced antibacterial activity against Staphylococcus aureus ATCC 33592 assessed as minimum modulatory concentration up to 32 uM measured after 16 hrs in presence of MIC/4 methicillin; format: functional; conditions: ATCC 33592, 16 h, read-out: MEC
[19] = test system: Staphylococcus aureus; test: Potentiation of tetracycline-induced antibacterial activity against Staphylococcus aureus ATCC 33592 assessed as minimum modulatory concentration up to 32 uM measured after 16 hrs in presence of MIC/4 tetracycline; format: functional; conditions: ATCC 33592, 16 h, read-out: MEC
[20] = test system: Pseudomonas aeruginosa; test: Potentiation of tetracycline-induced antibacterial activity against Pseudomonas aeruginosa ATCC BAA-2108 assessed as minimum modulatory concentration up to 32 uM measured after 16 hrs in presence of MIC/4 tetracycline; format: functional; conditions: ATCC BAA-2108, 16 h, read-out: MEC
[21] = test system: Enterococcus faecium; test: Potentiation of erythromycin-induced antibacterial activity against Enterococcus faecium ATCC 700221 assessed as minimum modulatory concentration up to 32 uM measured after 16 hrs in presence of MIC/4 erythromycin; format: functional; conditions: ATCC 700221, 16 h, read-out: MEC
[22] = test system: Staphylococcus aureus; test: Toxicity in Staphylococcus aureus ATCC 33592 up to 32 uM measured after 16 hrs; format: organism-based
[23] = test system: Macrophage cell line; test: Induction of TNFalpha production in human PBMC-differentiated macrophages after 24 hrs by ELISA; format: cell-based
[24] = test system: Escherichia coli; test: Potentiation of erythromycin-induced antibacterial activity against Escherichia coli ATCC 43894 assessed as minimum modulatory concentration up to 32 uM measured after 16 hrs in presence of MIC/4 erythromycin; format: functional; conditions: ATCC 43894, 16 h, read-out: MEC
[25] = test system: Escherichia coli; test: Toxicity in Escherichia coli ATCC 43894 up to 32 uM measured after 16 hrs; format: organism-based
[26] = test system: Klebsiella pneumoniae; test: Potentiation of ciprofloxacin-induced antibacterial activity against Klebsiella pneumoniae ATCC 13883 assessed as minimum modulatory concentration up to 32 uM measured after 16 hrs in presence of MIC/4 ciprofloxacin; format: functional; conditions: ATCC 13883, 16 h, read-out: MEC
[27] = test system: Escherichia coli; test: Potentiation of tetracycline-induced antibacterial activity against Escherichia coli ATCC 43894 assessed as minimum modulatory concentration up to 32 uM measured after 16 hrs in presence of MIC/4 tetracycline; format: functional; conditions: ATCC 43894, 16 h, read-out: MEC
[28] = test system: Enterococcus faecium; test: Potentiation of geneticin-induced antibacterial activity against Enterococcus faecium ATCC 700221 assessed as minimum modulatory concentration up to 32 uM measured after 16 hrs in presence of MIC/4 geneticin; format: functional; conditions: ATCC 700221, 16 h, read-out: MEC
[29] = test system: Pseudomonas aeruginosa; test: Potentiation of erythromycin-induced antibacterial activity against Pseudomonas aeruginosa ATCC BAA-2108 assessed as minimum modulatory concentration up to 32 uM measured after 16 hrs in presence of MIC/4 erythromycin; format: functional; conditions: ATCC BAA-2108, 16 h, read-out: MEC
[30] = test system: Streptococcus pyogenes; test: Potentiation of tetracycline-induced antibacterial activity against Streptococcus pyogenes ATCC 14289 assessed as minimum modulatory concentration up to 32 uM measured after 16 hrs in presence of MIC/4 tetracycline; format: functional; conditions: ATCC 14289, 16 h, read-out: MEC
[31] = test system: Enterococcus faecium; test: Potentiation of tetracycline-induced antibacterial activity against Enterococcus faecium ATCC 700221 assessed as minimum modulatory concentration up to 32 uM measured after 16 hrs in presence of MIC/4 tetracycline; format: functional; conditions: ATCC 700221, 16 h, read-out: MEC
[32] = test system: Streptococcus pyogenes; test: Potentiation of ciprofloxacin-induced antibacterial activity against Streptococcus pyogenes ATCC 14289 assessed as minimum modulatory concentration up to 32 uM measured after 16 hrs in presence of MIC/4 ciprofloxacin; format: functional; conditions: ATCC 14289, 16 h, read-out: MEC
[33] = test system: Macrophage cell line; test: Antiinflammatory activity in human PBMC-differentiated macrophages assessed as inhibition of LPS-induced prostaglandin production at 0.01 to 10 uM measured after 24 hrs by ELISA; format: functional, cell-based

C[n+]1ccc(C(=O)[O-])c(O)c1Cc1ccccc1
Activity [1]: Non-Toxic | minimal effective concentration [2]: > 32 µM | minimal effective concentration [3]: > 32 µM | minimal effective concentration [4]: > 32 µM | minimal effective concentration [5]: > 32 µM | Activity [6]: Non-Toxic | minimal effective concentration [7]: > 32 µM | minimal effective concentration [8]: > 32 µM | minimal effective concentration [9]: > 32 µM | inhibition [10]: inactive | minimal effective concentration [11]: > 32 µM | minimal effective concentration [12]: > 32 µM | Activity [13]: Non-Toxic | Activity [14]: Non-Toxic | minimal effective concentration [15]: > 32 µM | minimal effective concentration [16]: > 32 µM | minimal effective concentration [17]: > 32 µM | minimal effective concentration [18]: > 32 µM | minimal effective concentration [19]: > 32 µM | minimal effective concentration [20]: > 32 µM | minimal effective concentration [21]: > 32 µM | Activity [22]: Non-Toxic | Activity [23]: Non-Toxic | minimal effective concentration [24]: > 32 µM | Activity [25]: Non-Toxic | minimal effective concentration [26]: > 32 µM | minimal effective concentration [27]: > 32 µM | minimal effective concentration [28]: > 32 µM | minimal effective concentration [29]: > 32 µM | minimal effective concentration [30]: > 32 µM | minimal effective concentration [31]: > 32 µM | minimal effective concentration [32]: > 32 µM | inhibition [33]: inactive

COc1cccc(-c2cc(C(=O)[O-])c(O)c[n+]2C)c1
Activity [1]: Non-Toxic | minimal effective concentration [2]: > 32 µM | minimal effective concentration [3]: > 32 µM | minimal effective concentration [4]: > 32 µM | minimal effective concentration [5]: > 32 µM | Activity [6]: Non-Toxic | minimal effective concentration [7]: > 32 µM | minimal effective concentration [8]: > 32 µM | minimal effective concentration [9]: > 32 µM | inhibition [10]: inactive | minimal effective concentration [11]: > 32 µM | minimal effective concentration [12]: > 32 µM | Activity [13]: Non-Toxic | Activity [14]: Non-Toxic | minimal effective concentration [15]: > 32 µM | minimal effective concentration [16]: > 32 µM | minimal effective concentration [17]: > 32 µM | minimal effective concentration [18]: > 32 µM | minimal effective concentration [19]: > 32 µM | minimal effective concentration [20]: > 32 µM | minimal effective concentration [21]: > 32 µM | Activity [22]: Non-Toxic | Activity [23]: Non-Toxic | minimal effective concentration [24]: > 32 µM | Activity [25]: Non-Toxic | minimal effective concentration [26]: > 32 µM | minimal effective concentration [27]: > 32 µM | minimal effective concentration [28]: > 32 µM | minimal effective concentration [29]: > 32 µM | minimal effective concentration [30]: > 32 µM | minimal effective concentration [31]: > 32 µM | minimal effective concentration [32]: > 32 µM | inhibition [33]: inactive

Cc1nc(-c2ccccc2)cc(C(=O)O)c1O
Activity [1]: Non-Toxic | minimal effective concentration [2]: > 32 µM | minimal effective concentration [3]: > 32 µM | minimal effective concentration [4]: > 32 µM | minimal effective concentration [5]: > 32 µM | Activity [6]: Non-Toxic | minimal effective concentration [7]: > 32 µM | minimal effective concentration [8]: > 32 µM | minimal effective concentration [9]: > 32 µM | inhibition [10]: inactive | minimal effective concentration [11]: > 32 µM | minimal effective concentration [12]: > 32 µM | Activity [13]: Non-Toxic | Activity [14]: Non-Toxic | minimal effective concentration [15]: > 32 µM | minimal effective concentration [16]: > 32 µM | minimal effective concentration [17]: 16 µM | minimal effective concentration [18]: 16 µM | minimal effective concentration [19]: 16 µM | minimal effective concentration [20]: > 32 µM | minimal effective concentration [21]: > 32 µM | Activity [22]: Non-Toxic | Activity [23]: Non-Toxic | minimal effective concentration [24]: > 32 µM | Activity [25]: Non-Toxic | minimal effective concentration [26]: > 32 µM | minimal effective concentration [27]: > 32 µM | minimal effective concentration [28]: > 32 µM | minimal effective concentration [29]: > 32 µM | minimal effective concentration [30]: > 32 µM | minimal effective concentration [31]: > 32 µM | minimal effective concentration [32]: > 32 µM | inhibition [33]: inactive
